Structures can show the parent of a compound that is named as a salt.
Assays:
[1] = target: T1, human HIF-PHD3 (Homo sapiens, UniProt Q9H6Z9); assay: HIF-PHD inhibition assay (fluorescence polarization), human HIF-PHD3; type: biochemical; settings: 2-oxoglutaric acid 166 μmol/L
T1 construct: purchased CrystalGenomics Ltd
Summary of the method: (§1)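 Fluorescence polarization was read before and after adding enzyme, and the difference (mP value) taken as enzyme activity. The tracer carried a FAM (5′-fluoresceinamide) tag linked via aminocaproic acid.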

[2] = target: T2, human HIF-PHD2 (Homo sapiens, UniProt Q9GZT9); assay: HIF-PHD inhibition assay (fluorescence polarization), human HIF-PHD2; type: biochemical; settings: 2-oxoglutaric acid 3.33 μmol/L
T2 construct: purchased CrystalGenomics Ltd
Summary of the method: as §1

[3] = system: Hep3B cells; assay: EPO production assay (ELISA of culture supernatant); type: cell-based; settings: Homo sapiens, 3 μmol/L test compound, 48 hours, relative to control (0.1% DMSO), read-out: EPO production stimulation rate with 3 μmol/L test compound
Description: The stimulatory effect of the compound onEPO production was determined as follows using Hep3B cells.
Cells were seeded on 96 well plates at 40000 cells/well, and the plate was incubated overnight in MEM medium containing 10% fetal bovine serum (FBS) at 37° C. under 5% CO2. The next day, the medium was replaced with MEM containing 0.5% FBS, followed by addition of test compound. The test compound was dissolved in dimethyl sulfoxide and added to the cell so that the final concentration of dimethyl sulfoxide was 0.1%. After incubation for additional 48 hours, the culture supernatant was collected, and EPO contained in the supernatant was determined using ELISA kit (EPO ELISA Kit 11-693-417-001, Roche Co.). The results were expressed as stimulation rate of EPO production (fold), which was calculated as the relative value of the EPO production with 3 μmol/L of the test compound compared to the EPO production without stimulation (control).
Stimulation rate of EPO production (fold)=(EPO production with addition of test compound)/(EPO production of control)

T2 sequence (Q9GZT9 2-426 limits assumed): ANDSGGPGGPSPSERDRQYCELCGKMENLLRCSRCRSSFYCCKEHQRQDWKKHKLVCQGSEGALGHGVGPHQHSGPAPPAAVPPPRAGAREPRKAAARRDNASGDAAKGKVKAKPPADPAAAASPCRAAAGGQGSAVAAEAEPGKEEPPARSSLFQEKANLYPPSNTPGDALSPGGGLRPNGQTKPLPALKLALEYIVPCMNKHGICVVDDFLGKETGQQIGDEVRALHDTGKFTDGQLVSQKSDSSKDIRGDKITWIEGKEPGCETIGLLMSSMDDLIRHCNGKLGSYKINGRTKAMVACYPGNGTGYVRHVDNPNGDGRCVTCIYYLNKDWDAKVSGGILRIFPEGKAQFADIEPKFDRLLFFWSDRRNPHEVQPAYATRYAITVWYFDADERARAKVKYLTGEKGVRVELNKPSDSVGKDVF
T1 sequence (Q9H6Z9 whole entry): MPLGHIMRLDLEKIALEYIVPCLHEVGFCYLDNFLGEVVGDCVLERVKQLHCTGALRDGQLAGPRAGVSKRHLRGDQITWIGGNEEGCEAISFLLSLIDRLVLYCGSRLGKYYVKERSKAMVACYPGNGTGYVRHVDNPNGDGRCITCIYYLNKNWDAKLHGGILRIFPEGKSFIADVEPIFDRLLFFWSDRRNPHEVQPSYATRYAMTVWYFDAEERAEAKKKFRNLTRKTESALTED

For `C[C@@H](c1ccc2ccccc2c1)n1ncc2nc(-n3cc(C(=O)O)cn3)nc(O)c21` [Example 31], the IC50 [1] was 270 nM, the IC50 [2] was 13 nM and the fold induction at 3 µM [3] was 4.7.

`O=C(O)c1cnn(-c2nc(O)c3nn(Cc4ccc5ccccc5c4)cc3n2)c1` [Example 242] was tested, and the IC50 [1] was 150 nM, the IC50 [2] was 17 nM and the fold induction at 3 µM [3] was 1.7.

With `COc1cc(Cn2ncc3nc(-n4cc(C(=O)O)cn4)nc(O)c32)ccc1-c1ccccc1F` [Example 96] the IC50 [1] was 110 nM, the IC50 [2] was 13 nM and the fold induction at 3 µM [3] was 6.8.

Compound `O=C(O)c1cnn(-c2nc(O)c3c(cnn3CCCOc3ccccc3C(F)(F)F)n2)c1` [Example 173] has an IC50 [1] of 190 nM, an IC50 [2] of 13 nM and a fold induction at 3 µM [3] of 7.7.

`O=C(O)c1cnn(-c2nc(O)c3c(cnn3CC3CCCCCCC3)n2)c1` [Example 159] showed an IC50 [1] of 380 nM, an IC50 [2] of 110 nM and a fold induction at 3 µM [3] of 4.5.

For `CC[C@H]1CC[C@H](Cn2ncc3nc(-n4cc(C(=O)O)cn4)nc(O)c32)CC1` [Example 140], the IC50 [1] was 830 nM, the IC50 [2] was 14 nM and the fold induction at 3 µM [3] was 6.2.

Compound `O=C(O)c1cnn(-c2nc3cn(Cc4ccc(-c5ccccc5)cc4)nc3c(=O)[nH]2)c1` [Example 237] has an IC50 [1] of 38 nM and a fold induction at 3 µM [3] of 4.3.

Compound `O=C(O)c1cnn(-c2nc(O)c3c(cnn3CCOc3cccc4ccccc34)n2)c1` [Example 206] has an IC50 [1] of 510 nM, an IC50 [2] of 32 nM and a fold induction at 3 µM [3] of 2.2.

Compound `O=C(O)c1cnn(-c2nc(O)c3c(cnn3Cc3cccc(-c4ccc(OC(F)(F)F)cc4)c3)n2)c1` [Example 43] has an IC50 [1] of 200 nM, an IC50 [2] of 15 nM and a fold induction at 3 µM [3] of 6.5.

`O=C(O)c1cnn(-c2nc3cnn(Cc4ccc(-c5ccccc5)cc4)c3c(=O)[nH]2)c1` [Example 55] gave an IC50 [1] of 24 nM and a fold induction at 3 µM [3] of 34.

With `O=C(O)c1cnn(-c2nc(O)c3c(cnn3Cc3cccc(-c4ccccc4)c3F)n2)c1` [Example 52] the IC50 [1] was 250 nM, the IC50 [2] was 22 nM and the fold induction at 3 µM [3] was 3.3.

With `CCc1ccccc1-c1ccc(Cn2ncc3nc(-n4cc(C(=O)O)cn4)nc(O)c32)cc1` [Example 58] the IC50 [1] was 65 nM, the IC50 [2] was 21 nM and the fold induction at 3 µM [3] was 9.3.

`O=C(O)c1cnn(-c2nc(O)c3c(cnn3CC3(COc4ccc5c(c4)CCCC5)CC3)n2)c1` [Example 199] gave an IC50 [1] of 1100 nM, an IC50 [2] of 130 nM and a fold induction at 3 µM [3] of 5.

`Cc1ccc(C(C(C)C)n2ncc3nc(-n4cc(C(=O)O)cn4)nc(O)c32)cc1` (single isomer, unassigned) [Example 26] was tested, and the IC50 [1] was 1500 nM, the IC50 [2] was 66 nM and the fold induction at 3 µM [3] was 3.4.

In the case of `O=C(O)c1cnn(-c2nc(O)c3c(cnn3CC3CCCCC3)n2)c1` [Example 136], the IC50 [1] is reported as 320 nM, the IC50 [2] is reported as 31 nM and the fold induction at 3 µM [3] is reported as 8.5.

Compound `Cc1c(Cn2ncc3nc(-n4cc(C(=O)O)cn4)nc(O)c32)ccc2ccccc12` [Example 35] has an IC50 [1] of 250 nM, an IC50 [2] of 18 nM and a fold induction at 3 µM [3] of 5.7.

For `C[C@@H](c1ccc(Cl)c(Cl)c1)n1ncc2nc(-n3cc(C(=O)O)cn3)nc(O)c21` [Example 23], the IC50 [1] was 220 nM and the fold induction at 3 µM [3] was 3.2.

`O=C(O)c1cnn(-c2nc3cnn(Cc4ccc(Cl)c(Cl)c4)c3c(=O)[nH]2)c1` [Example 1, 1-[1-(3,4-dichlorobenzyl)-7-hydroxy-1H-pyrazolo[4,3-d]pyrimidin-5-yl]-1H-pyrazole-4-carboxylic acid] was tested, and the IC50 [1] was 160 nM and the fold induction at 3 µM [3] was 4.6.

Work on `Cc1nn(CC2CCCCC2)c2c(O)nc(-n3cc(C(=O)O)cn3)nc12` [Example 230] yielded an IC50 [2] of 83 nM and a fold induction at 3 µM [3] of 2.

Compound `C[C@H](c1ccc(Cl)c(Cl)c1)n1ncc2nc(-n3cc(C(=O)O)cn3)nc(O)c21` [Example 22] has an IC50 [1] of 540 nM and a fold induction at 3 µM [3] of 6.9.

With `Cc1ccc(C(C)(C)Cn2ncc3nc(-n4cc(C(=O)O)cn4)nc(O)c32)cc1` [Example 119] the IC50 [2] was 240 nM and the fold induction at 3 µM [3] was 3.7.

With `CC(C)C(c1ccc(C(F)(F)F)cc1)n1ncc2nc(-n3cc(C(=O)O)cn3)nc(O)c21` (stereo not shown) [Example 356] the IC50 [1] was 710 nM and the IC50 [2] was 53 nM.

For `C[C@@H](c1ccc2c(c1)CCCC2)n1ncc2nc(-n3cc(C(=O)O)cn3)nc(O)c21` [Example 290], the IC50 [1] was 400 nM and the IC50 [2] was 38 nM.

Work on `CC(C)[C@H]1CC[C@@H](n2ncc3nc(-n4cc(C(=O)O)cn4)nc(O)c32)CC1` [Example 390] yielded an IC50 [1] of 660 nM and an IC50 [2] of 28 nM.

With `CCC1CCCC(n2ncc3nc(-n4cc(C(=O)O)cn4)nc(O)c32)C1` (single isomer, unassigned) [Example 416] the IC50 [1] was 530 nM and the IC50 [2] was 18 nM.

`O=C(O)c1cnn(-c2nc(O)c3c(cnn3C(c3cccc(Cl)c3)C3CC3)n2)c1` (single isomer, unassigned) [Example 375] showed an IC50 [1] of 500 nM and an IC50 [2] of 52 nM.

Work on `CC1(C)CCC(n2nc(F)c3nc(-n4cc(C(=O)O)cn4)nc(O)c32)CC1` [Example 481] yielded an IC50 [1] of 480 nM and an IC50 [2] of 71 nM.

`O=C(O)c1cnn(-c2nc3cnn(Cc4ccc(-c5ccccc5F)c(F)c4)c3c(=O)[nH]2)c1` [Example 93] was tested, and the IC50 [1] was 130 nM and the fold induction at 3 µM [3] was 23.

In the case of `O=C(O)c1cnn(-c2nc(O)c3c(cnn3C(c3cc(F)cc(F)c3)C3CC3)n2)c1` (single isomer, unassigned) [Example 373], the IC50 [1] is reported as 650 nM and the IC50 [2] is reported as 36 nM.

`O=C(O)c1cnn(-c2nc(O)c3c(cnn3Cc3cc(F)c(-c4ccccc4F)cc3F)n2)c1` [Example 100] was tested, and the IC50 [1] was 89 nM and the IC50 [2] was 16 nM.

With `O=C(O)c1cnn(-c2nc(O)c3c(cnn3[C@H]3CCN(c4ccc(C(F)(F)F)cc4)C3)n2)c1` [Example 437] the IC50 [1] was 180 nM and the IC50 [2] was 2.5 nM.

With `Cc1nn([C@H]2CC[C@H](C)CC2)c2c(O)nc(-n3cc(C(=O)O)cn3)nc12` [Example 483] the IC50 [1] was 1200 nM and the IC50 [2] was 110 nM.

With `CC1(C)CCCC1n1ncc2nc(-n3cc(C(=O)O)cn3)nc(O)c21` (single isomer, unassigned) [Example 418] the IC50 [1] was 910 nM and the IC50 [2] was 83 nM.

`C[C@H](c1cc(Cl)cc(C(F)(F)F)c1)n1ncc2nc(-n3cc(C(=O)O)cn3)nc(O)c21` [Example 268] was tested, and the IC50 [1] was 890 nM and the IC50 [2] was 100 nM.

`CCc1nn(CC2CCCCC2)c2c(O)nc(-n3cc(C(=O)O)cn3)nc12` [Example 232] showed an IC50 [1] of 1400 nM and an IC50 [2] of 150 nM.

Work on `C[C@@H](c1ccc(C(F)(F)F)c(F)c1)n1ncc2nc(-n3cc(C(=O)O)cn3)nc(O)c21` [Example 281] yielded an IC50 [1] of 450 nM and an IC50 [2] of 20 nM.

In the case of `Cc1cc(-c2ccccc2F)ccc1Cn1ncc2nc(-n3cc(C(=O)O)cn3)nc(O)c21` [Example 88], the IC50 [1] is reported as 44 nM and the IC50 [2] is reported as 8.6 nM.

`O=C(O)c1cnn(-c2nc(O)c3c(cnn3C(c3ccc(Cl)cc3)C3CC3)n2)c1` (stereo not shown) [Example 364] showed an IC50 [1] of 780 nM and an IC50 [2] of 39 nM.

Compound `CCC(c1cccc(C(F)(F)F)c1)n1ncc2nc(-n3cc(C(=O)O)cn3)nc(O)c21` (stereo not shown) [Example 341] has an IC50 [1] of 790 nM and an IC50 [2] of 52 nM.

`O=C(O)c1cnn(-c2nc(O)c3c(cnn3C(c3ccc(F)cc3)C3CC3)n2)c1` (stereo not shown) [Example 366] showed an IC50 [1] of 540 nM and an IC50 [2] of 120 nM.

`C[C@@H](c1cccc(Cl)c1)n1ncc2nc(-n3cc(C(=O)O)cn3)nc(O)c21` [Example 253] was tested, and the IC50 [1] was 600 nM and the IC50 [2] was 71 nM.

For `C[C@@H](c1ccc(F)c(Cl)c1)n1nc(C2CC2)c2nc(-n3cc(C(=O)O)cn3)nc(O)c21` [Example 462], the IC50 [1] was 990 nM and the IC50 [2] was 81 nM.

`C[C@@H](c1ccc(OC(F)(F)F)cc1)n1ncc2nc(-n3cc(C(=O)O)cn3)nc(O)c21` [Example 276] gave an IC50 [1] of 380 nM and an IC50 [2] of 15 nM.

`CC1CCCC(n2ncc3nc(-n4cc(C(=O)O)cn4)nc(O)c32)C1` (stereo not shown) [Example 400] was tested, and the IC50 [1] was 600 nM and the IC50 [2] was 23 nM.

`O=C(O)c1cnn(-c2nc(O)c3c(cnn3CC3CCN(Cc4ccc(F)cc4)CC3)n2)c1` [Example 2, 1-(1-{[1-(4-fluorobenzyl)piperidin-4-yl]methyl}-7-hydroxy-1H-pyrazolo[4,3-d]pyrimidin-5-yl)-1H-pyrazole-4-carboxylic acid hydrochloride] showed an IC50 [1] of 1100 nM and an IC50 [2] of 84 nM.

`CC[C@H]1CC[C@H](n2nc(F)c3nc(-n4cc(C(=O)O)cn4)nc(O)c32)CC1` [Example 480] showed an IC50 [1] of 670 nM and an IC50 [2] of 47 nM.

In the case of `O=C(O)c1cnn(-c2nc(O)c3nn(CC4(COc5ccc6c(c5)CCCC6)CC4)cc3n2)c1` [Example 249], the IC50 [1] is reported as 280 nM and the IC50 [2] is reported as 26 nM.

Compound `O=C(O)c1cnn(-c2nc(O)c3c(cnn3Cc3ccc(C4CC4)cc3)n2)c1` [Example 321] has an IC50 [1] of 190 nM and an IC50 [2] of 11 nM.

`O=C(O)c1cnn(-c2nc(O)c3c(cnn3CC(F)(F)c3ccc(Cl)cc3)n2)c1` [Example 125] was tested, and the IC50 [1] was 910 nM and the IC50 [2] was 110 nM.

For `CC(C)C(c1ccc(F)cc1)n1ncc2nc(-n3cc(C(=O)O)cn3)nc(O)c21` (single isomer, unassigned) [Example 355], the IC50 [1] was 540 nM and the IC50 [2] was 120 nM.

In the case of `C[C@@H](c1cccc(F)c1)n1ncc2nc(-n3cc(C(=O)O)cn3)nc(O)c21` [Example 254], the IC50 [1] is reported as 510 nM and the IC50 [2] is reported as 97 nM.

`C[C@@H](C1CCN(c2cccc(Cl)c2)CC1)n1ncc2nc(-n3cc(C(=O)O)cn3)nc(O)c21` [Example 435] gave an IC50 [1] of 170 nM and an IC50 [2] of 15 nM.

From patent US20150239889A1, “PYRAZOLOPYRIMIDINE COMPOUND” (MITSUBISHI TANABE PHARMA CORPORATION, priority 2012, published 2015)
